Measurements as given in article PMC11822212, “High-throughput screening identifies Aurora kinase B as a critical therapeutic target for Merkel cell carcinoma” (Nature Communications, 2025).

Legend:
[1] = test system: MCC13 cells (VN-MCC); test: qHTS cell viability (CellTiter-Glo, 72 h; primary and follow-up small molecule screen); type: cell-based, human
[2] = test system: VP-MCC cell lines (WAGA, MKL-1, MKL-2); test: qHTS cell viability, VP-MCC cell lines as a group (mean AUC, VP.MCC.avg); type: cell-based, human; settings: for VP-MCC_Avg_AUC: mean AUC of VP-MCC cell lines
[3] = test system: HACAT cells; test: qHTS cell viability (CellTiter-Glo, 72 h; primary screen), control cell line; type: cell-based, human
[4] = test system: UISO cells (VN-MCC); test: qHTS cell viability (CellTiter-Glo, 72 h; primary and follow-up small molecule screen); type: cell-based, human
[5] = test system: six MCC cell lines and four control cell lines; test: qHTS cell viability, all 10 cell lines screened; type: cell-based
[6] = test system: NIH-3T3 cells; test: qHTS cell viability (CellTiter-Glo, 72 h; primary screen), control cell line; type: cell-based, mouse
[7] = test system: HEK293T cells; test: as above; type: cell-based, human
[8] = test system: MCC cell lines (WAGA, MKL-1, MKL-2, MCC13, MCC26, UISO); test: qHTS cell viability, all six MCC cell lines as a group (mean AUC, MCC.avg); type: cell-based, human; settings: mean AUC of six MCC cell lines
[9] = test system: WAGA cells (VP-MCC); test: qHTS cell viability (CellTiter-Glo, 72 h; primary and follow-up small molecule screen); type: cell-based, human
[10] = test system: CRL-7250 cells; test: qHTS cell viability (CellTiter-Glo, 72 h; primary screen), control cell line; type: cell-based
[11] = test system: MCC26 cells (VN-MCC); test: qHTS cell viability (CellTiter-Glo, 72 h; primary and follow-up small molecule screen); type: cell-based, human
[12] = test system: control cell lines (HACAT, HEK293T, CRL-7250, NIH-3T3); test: qHTS cell viability, control cell lines as a group (mean AUC, Control.avg); type: cell-based; settings: mean AUC of control cell lines
[13] = test system: MKL-2 cells (VP-MCC); test: qHTS cell viability (CellTiter-Glo, 72 h; primary and follow-up small molecule screen); type: cell-based, human
[14] = test system: VN-MCC cell lines (MCC13, MCC26, UISO); test: qHTS cell viability, VN-MCC cell lines as a group (mean AUC, VN.MCC.avg); type: cell-based, human; settings: for VN-MCC_Avg_AUC: mean AUC of VN-MCC cell lines
[15] = test system: MKL-1 cells (VP-MCC); test: qHTS cell viability (CellTiter-Glo, 72 h; primary and follow-up small molecule screen); type: cell-based, human
[16] = NPC library, qHTS dose-response AUC, MCC13
[17] = NPC library, therapeutic window: Control avg AUC minus VP-MCC avg AUC
[18] = NPC library, qHTS dose-response AUC, HACAT control
[19] = NPC library, qHTS dose-response AUC, UISO
[20] = NPC library, therapeutic window: Control avg AUC minus MCC avg AUC
[21] = NPC library, qHTS dose-response AUC, NIH3T3 control
[22] = NPC library, qHTS dose-response AUC, HEK293T control
[23] = NPC library, qHTS dose-response AUC, WAGA
[24] = NPC library, qHTS dose-response AUC, CRL7250 control
[25] = NPC library, qHTS dose-response AUC, MCC26
[26] = NPC library, qHTS dose-response AUC, MKL2
[27] = NPC library, therapeutic window: Control avg AUC minus VN-MCC avg AUC
[28] = NPC library, qHTS dose-response AUC, MKL1
[29] = MIPE library, 11-point DRC, sheet S2E
[30] = MIPE library, 11-point DRC, control cell line, sheet S2E

Structure (SMILES): CCCCCCC[N+](CC)(CC)CCCCc1ccc(Cl)cc1.Cc1ccc(S(=O)(=O)[O-])cc1 [Clofilium tosylate]
- MCC13_AUC [1, 16]: 487.681
- Area under the dose-response curve (AUC) MCC13 Replicate 1 ([1]; follow-up screen, MCC13, replicate 1): 426.2
- Area under the dose-response curve (AUC) MCC13 Replicate 2 ([1]; follow-up screen, MCC13, replicate 2): 460.3
- Area under the dose-response curve (AUC) MCC13 Replicate 3 ([1]; follow-up screen, MCC13, replicate 3): 452.0
- VP-MCC_Avg_AUC ([2]; NPC library): 309.028
- Control-VP-MCC [2, 17]: 109.618
- HACAT_AUC [3, 18]: 444.696
- UISO_AUC [4, 19]: 375.709
- Area under the dose-response curve (AUC) UISO Replicate 1 ([4]; follow-up screen, UISO, replicate 1): 319.6
- Area under the dose-response curve (AUC) UISO Replicate 2 ([4]; follow-up screen, UISO, replicate 2): 366.0
- Area under the dose-response curve (AUC) UISO Replicate 3 ([4]; follow-up screen, UISO, replicate 3): 321.7
- Control-MCC [5, 20]: 42.4257
- NIH3T3_AUC [6, 21]: 452.7
- HEK293T_AUC [7, 22]: 375.013
- MCC_Avg_AUC ([8]; NPC library): 376.221
- WAGA_AUC [9, 23]: 331.884
- Area under the dose-response curve (AUC) WAGA Replicate 1 ([9]; follow-up screen, WAGA, replicate 1): 348.8
- Area under the dose-response curve (AUC) WAGA Replicate 2 ([9]; follow-up screen, WAGA, replicate 2): 411.4
- Area under the dose-response curve (AUC) WAGA Replicate 3 ([9]; follow-up screen, WAGA, replicate 3): 326.5
- CRL7250_AUC [10, 24]: 402.177
- MCC26_AUC [11, 25]: 466.849
- Area under the dose-response curve (AUC) MCC26 Replicate 1 ([11]; follow-up screen, MCC26, replicate 1): 410.9
- Area under the dose-response curve (AUC) MCC26 Replicate 2 ([11]; follow-up screen, MCC26, replicate 2): 395.3
- Area under the dose-response curve (AUC) MCC26 Replicate 3 ([11]; follow-up screen, MCC26, replicate 3): 393.8
- Control_Avg_AUC ([12]; NPC library): 418.646
- MKL2_AUC [13, 26]: 283.262
- Area under the dose-response curve (AUC) MKL-2 Replicate 1 ([13]; follow-up screen, MKL-2, replicate 1): 313.7
- Area under the dose-response curve (AUC) MKL-2 Replicate 2 ([13]; follow-up screen, MKL-2, replicate 2): 309.2
- Area under the dose-response curve (AUC) MKL-2 Replicate 3 ([13]; follow-up screen, MKL-2, replicate 3): 301.8
- VN-MCC_Avg_AUC ([14]; NPC library): 443.413
- Control-VN-MCC [14, 27]: -24.7666
- MKL1_AUC [15, 28]: 311.939
- Area under the dose-response curve (AUC) MKL-1 Replicate 1 ([15]; follow-up screen, MKL-1, replicate 1): 329.2
- Area under the dose-response curve (AUC) MKL-1 Replicate 2 ([15]; follow-up screen, MKL-1, replicate 2): 327.6
- Area under the dose-response curve (AUC) MKL-1 Replicate 3 ([15]; follow-up screen, MKL-1, replicate 3): 322.0

Structure (SMILES): Cc1cc(OCCOCC[N+](C)(C)Cc2ccccc2)ccc1C(C)(C)CC(C)(C)C.[Cl-] [Methylbenzethonium chloride]
- MCC13_AUC [1, 16]: 479.749
- VP-MCC_Avg_AUC ([2]; NPC library): 240.895
- Control-VP-MCC [2, 17]: 174.06
- HACAT_AUC [3, 18]: 428.465
- UISO_AUC [4, 19]: 375.218
- Control-MCC [5, 20]: 76.0988
- NIH3T3_AUC [6, 21]: 469.697
- HEK293T_AUC [7, 22]: 317.092
- MCC_Avg_AUC ([8]; NPC library): 338.857
- WAGA_AUC [9, 23]: 200.731
- CRL7250_AUC [10, 24]: 444.568
- MCC26_AUC [11, 25]: 455.487
- Control_Avg_AUC ([12]; NPC library): 414.956
- MKL2_AUC [13, 26]: 209.354
- VN-MCC_Avg_AUC ([14]; NPC library): 436.818
- Control-VN-MCC [14, 27]: -21.8625
- MKL1_AUC [15, 28]: 312.601

Structure (SMILES): C=C1C(=O)[C@]23[C@H](O)[C@H]1CC[C@H]2[C@@]12CO[C@]3(O)[C@@H](O)[C@@H]1C(C)(C)CC[C@@H]2O [Oridonin]
- MCC13_AUC [1, 29]: 444.187
- Control-VP-MCC ([2]; MIPE library, Control AUC minus VP-MCC AUC (therapeutic window), sheet S2E): 79.3252
- VP-MCC_Avg_AUC ([2]; MIPE library, sheet S2E): 342.925
- HACAT_AUC [3, 30]: 442.799
- UISO_AUC [4, 29]: 376.109
- Control-MCC ([5]; MIPE library, Control AUC minus MCC AUC (therapeutic window), sheet S2E): 32.9531
- NIH3T3_AUC [6, 30]: 414.657
- HEK293T_AUC [7, 30]: 399.439
- MCC_Avg_AUC ([8]; MIPE library, sheet S2E): 389.297
- WAGA_AUC [9, 29]: 351.193
- CRL7250_AUC [10, 30]: 432.105
- MCC26_AUC [11, 29]: 486.711
- Control_Avg_AUC ([12]; MIPE library, sheet S2E): 422.25
- MKL2_AUC [13, 29]: 318.538
- Control-VN-MCC ([14]; MIPE library, Control AUC minus VN-MCC AUC (therapeutic window), sheet S2E): -13.4189
- VN-MCC_Avg_AUC ([14]; MIPE library, sheet S2E): 435.669
- MKL1_AUC [15, 29]: 359.043
